Consider 33 molecules from patent US5637731A (priority 1996, dated 1997).

Several values for one entry are separate records, joined by “and”; a condition that tells them apart may be missing. Identical values can stand only once. Counter-ions that a name gives are not always drawn. Like-named read-outs stand apart in the source and are kept apart here.

Data set [1] concerns peripheral acetylcholine-like effects. Put plainly: Side effect profile: in vivo overt effects (salivation, tremor, diarrhea) after oral administration. Also on record: species or system rat. The text has this:
The use of the radioligand binding assays (^3 H-QNB and ^3 H-CD) to characterize the hydroxylated oxotremorine derivatives provides a useful first approximation for,the evaluation of the muscarinic agonist-like profile of a test compound. However, in using a prodrug methodology, intrinsic activity will not be observed until in vivo hydrolysis or metabolism to the active compound occurs. Therefore, radioligand binding data, performed on the carbonyl derivatives, will not provide leading information. As a result, the observed overt effects after oral administration to rats of the test carbonyl derivative, relative to its corresponding hydroxylated oxotremorine compound, became the primary in vivo pharmacological measure. These in vivo overt effects are attributed to the peripheral acetylcholine-like effects of the compound, such as salivation, tremor and diarrhea. The in vivo overt effects also providing dosing information for the behavioral tests of cognitive improvement.

The target of data set [2] is muscarinic cholinergic receptor. Put plainly: [^3 H]-Cis-methyldioxolane (^3 H-CD) Binding Assay (High Affinity). To be noted: rat cerebral cortex, ^3 H-CD 1.0 nM, 25° C., 120 minutes, pH 7.4; high affinity agonist binding.
Data set [3] shares this target. The class given is binding, rat. To be noted: pH 7.4.
[4] abbreviates: rat cerebral cortex, ^3 H-QNB 0.25 nM, 25° C., 120 minutes.

On to `CCCCCCCC(=O)O[C@H]1CCN(CC#CCN2CCCC2)C1=O`, for which, in data set [1] ((rat) po), the “Side Effect Profile minimum effective dose (MED)” value was 14 μ mol/kg. `CCOC(=O)O[C@@H]1CCN(CC#CCN(C)C)C1=O` [(R)-1-[4-(Dimethylamino)-2-butynyl]-2-oxo-3-pyrrolidinyl carbonic acid ethyl ester]: the “Side Effect Profile minimum effective dose (MED)” value in data set [1] ((rat) po) is 127 μ mol/kg and 254 μ mol/kg; in data set [1] ((rat) po; listed as R)-1-[4-(Dimethylamino)-2-butynyl]-2-oxo-3-pyrrolidinyl carbonic acid ethyl este), 258 μ mol/kg.

Regarding `CCCCOC(=O)O[C@@H]1CCN(CC#CCN2CCCC2)C1=O` [(R)-2-Oxo-1-[4-(1-pyrrolidinyl)-2-butynyl]-3-pyrrolidinyl carbonic acid butyl ester], in data set [1] ((rat) po), the “Side Effect Profile minimum effective dose (MED)” value was found to be 14 μ mol/kg. With `CC(C)(C)C(=O)O[C@H]1CCN(CC#CC[N+](C)(C)C)C1=O` [(S)-4-[3-(2,2-Dimethyl-1-oxopropoxy)-2-oxo-1-pyrrolidinyl]-N,N, N-trimethyl-2-butyn-1-aminium iodide], the results for the Ki in data set [2] and in data set [3] (setting [4]) were 7800 nM and 478000 nM, respectively. Turning to `COC(=O)O[C@H]1CCN(CC#CCN(C)C)C1=O` [(S)-Carbonic acid 1-[4-(dimethylamino)-2-butynyl]-2-oxo-3-pyrrolidinyl methyl ester], the Ki in data set [2] is 2160 nM; in data set [3] (setting [4]), 15100 nM. In the case of `CCCCCCCCOC(=O)O[C@H]1CCN(CC#CCN(C)C)C1=O` [(S)-Carbonic acid 1-[4-(dimethylamino)-2-butynyl]-2-oxo-3-pyrrolidinyl octyl ester], the Ki in data set [2] was 306 nM; in data set [3] (setting [4]) it was 10000 nM. For `CCCCCCOC(=O)O[C@H]1CCN(CC#CCN2CCCC2)C1=O` [(S)-Carbonic acid hexyl 2-oxo-1-[4-(1-pyrrolidinyl)-2-butynyl]-3-pyrrolidinyl ester], the Ki was 15 nM in data set [2] and 1700 nM in data set [3] (setting [4]). Consider `COC(=O)O[C@H]1CC(=O)N(CC#CCN2CCCC2)C1` [(S)-Carbonic acid methyl 2-oxo-1-[4-(1-pyrrolidinyl)-2-butynyl]-4-pyrrolidinyl ester], for which the Ki in data set [2] came out at 850 nM; in data set [3] (setting [4]) it was 1800 nM. Regarding `CCCCCCCCCC(=O)O[C@H]1CCN(CC#CCN(C)C)C1=O` [(S)-Decanoic acid 1-[4-(dimethylamino)2-butynyl]-2-oxo-3-pyrrolidinyl ester], the results for the Ki in data set [2] and in data set [3] (setting [4]) were 23 nM and 600 nM, respectively. As for `CCCCCCCCCC(=O)O[C@H]1CC(=O)N(CC#CCN2CCCC2)C1` [(S)-Decanoic acid 2-oxo-1-[4-(1-pyrrolidinyl)-2-butynyl]-4-pyrrolidinyl ester], the Ki stood at 330 nM in data set [2] and 35 nM in data set [3] (setting [4]). With `CN(C)C(=O)O[C@H]1CCN(CC#CCN2CCCC2)C1=O` [(S)-Dimethylcarbamic acid 2-oxo-1-[4-(1-pyrrolidinyl)-2-butynyl]-3-pyrrolidinyl ester], the Ki in data set [2] was 9560 nM; in data set [3] (read-out: ^3 H-QNB Ki), 40300 nM. On to `CCCCCCCCCC(=O)O[C@H]1CCN(CC#CC[N+](C)(C)C)C1=O` [(S)-N,N, N-Trimethyl-4-[2-oxo-3-[(1-oxodecyl)oxy]-1-pyrrolidinyl-2-butyn-1-aminium iodide], for which the Ki was found to be 156 nM in data set [2] and 3 nM in data set [3] (setting [4]). As for `CC(C)C(=O)O[C@H]1CCN(CC#CC[N+](C)(C)C)C1=O` [(S)-N,N, N-Trimethyl-4-[3-(2-methyl-1-oxopropoxy)-2-oxo-1-pyrrolidinyl]-2-butyn-1-aminium iodide], the Ki came out at 6960 nM in data set [2] and 64300 nM in data set [3] (setting [4]). For the molecule `CS[C@H]1CCN(CC#CC[N+](C)(C)C)C1=O` [(S)-N,N, N-Trimethyl-4-[3-(methylthio)-2-oxo1-pyrrolidinyl]-2-butyn-1-aminium iodide], the Ki was determined as 310 nM in data set [2] and 1800 nM in data set [3] (setting [4]).

Regarding `CCCCCCCCOC(=O)O[C@H]1CCN(CC#CC[N+](C)(C)C)C1=O` [(S)-N,N, N-Trimethyl-4-[3-[[(octyloxy)carbonyl]oxy]-2-oxo-1-pyrrolidinyl]-2-butyn-1-aminium iodide], the Ki in data set [2] came to 13 nM; in data set [3] (setting [4]), 100 nM.

`CC(C)(C)[Si](C)(C)OC[C@@H]1CCCN1CC#CCNC(=O)C(F)(F)F` [(S)-N-[4-[2-[[[(1,1-Dimethylethyl]-dimethylsilyl]oxy]-methyl]-1-pyrrolidinyl]-2-butynyl]-2,2,2-trifluoroacetamide]: the figures for the Ki in data set [2] and in data set [3] (setting [4]) were 41400 nM and more than 100000 nM, respectively. Consider `CCCCCCCCNC(=O)O[C@H]1CC(=O)N(CC#CCN2CCCC2)C1` [(S)-Octylcarbamic acid 2-oxo-1-[4-(1-pyrrolidinyl)-2-butynyl]-4-pyrrolidinyl ester], for which the Ki is 350 nM in data set [2] and 130 nM in data set [3] (setting [4]). For `CCN(CC)CC#CCN` [N,N-Diethyl-2-butyne-1,4-diamine dihydrochloride], the Ki in data set [2] and in data set [3] (setting [4]) was more than 100000 nM in each case. For `CN(C)CC#CCN` [N,N-Dimethyl-2-butyne-1,4-diamine dihydrochloride], the Ki is 20500 nM in data set [2] and more than 100000 nM in data set [3] (setting [4]). Take `CCN(CC)CC#CCNC(=O)C(F)(F)F` [N-[4-(Diethylamino)-2-butynyl]-2,2,2-trifluoroacetamide monohydrochloride]: the figures for the Ki in data set [2] and in data set [3] (setting [4]) were 4070 nM and more than 100000 nM, respectively. For `CN(C)CC#CCNC(=O)C(F)(F)F` [N-[4-Dimethylamino)-2-butynyl]-2,2,2-trifluoroacetamide monomhydrochloride], the Ki is 6100 nM in data set [2] and more than 100000 nM in data set [3] (setting [4]). For the molecule `CC1CCN(CC#CCN2CCC(O[Si](C)(C)C(C)(C)C)C2)C1=O` (stereo not drawn) [[R-(R*,R* and R*,S*)]-1-[4-[3[[(1,1-dimethylethyl)-dimethylsilyl]oxy]-1-pyrrolidinyl-2-butynyl]-3-methyl-2-pyrrolidinone], the Ki in data set [2] and in data set [3] (setting [4]) was more than 100000 nM each time.

Regarding `CC(C)(C)[Si](C)(C)OC[C@H]1CCCN1CC#CCN1CC[C@@H](O)C1=O` [[R-(R*,R*)]-1-[4-[2-[[[(1,1-Dimethylethyl)dimethylsilyl]-oxy]methyl]-1-pyrrolidinyl]-2-butynyl]-3-hydroxy-2-pyrrolidinone], the results for the Ki in data set [2] and in data set [3] (setting [4]) were 4200 nM and more than 100000 nM, respectively. With `CC(=O)O[C@@H]1CCN(CC#CCN2CCC[C@@H]2CO[Si](C)(C)C(C)(C)C)C1=O` [[R-(R*,R*)]-3-Acetyloxy)-1-[4-[2-[[[(1,1-dimethylethyl)-dimethylsilyl]oxy]methyl]-1-pyrrolidinyl]-2-butynyl]-2-pyrrolidinone], the results for the Ki in data set [2] and in data set [3] (setting [4]) were 10100 nM and more than 100000 nM, respectively.

For the molecule `CC(C)(C)[Si](C)(C)OC[C@@H]1CCCN1CC#CCN1CC[C@@H](O)C1=O` [[R-(R*,S*)]-1-[4-[2-[[[(1,1-dimethylethyl)dimethylsilyl]oxy]methyl]-1-pyrrolidinyl]-2-butynyl]-3-hydroxy-2-pyrrolidone], the Ki stood at 470 nM in data set [2] and 500 nM in data set [3] (setting [4]).

For the molecule `CC(=O)O[C@@H]1CCN(CC#CCN2CCC[C@H]2CO[Si](C)(C)C(C)(C)C)C1=O` [[R-(R*,S*)]-3-(Acetoxy)-1-[4-[2-[[[(1,1-dimethylethyl)dimethylsilyl]oxy]methyl]-1-pyrrolidinyl]-2-butynyl]-1]-2-pyrrolidinone], the Ki in data set [2] came to 1700 nM; in data set [3] (setting [4]), 500000 nM.

With `CC1CCN(CC#CCN2CCCC2CO[Si](C)(C)C(C)(C)C)C1=O` (stereo not drawn) [[R-[(R*,R* and R*,S*)]]-1-[4-[2-[[[(1,1-dimethylethyl)dimethylsilyl]oxy]methyl]-1-pyrrolidinyl]-2-butynyl]-3-methyl-2-pyrrolidinone], the Ki in data set [2] is 5600 nM; in data set [3] (setting [4]) it was 2500 nM. Taken in the same sequence, the figures for `CC(C)(C)[Si](C)(C)OC[C@@H]1CCCN1CC#CCN1CC[C@H](O)C1=O` [[S-(R*,R*)]-1-[4-[2-[[[(1,1-Dimethylethyl)dimethylsilyl]-oxy]methyl]-1-pyrrolidinyl]-2-butynyl]-3-hydroxy-2-pyrrolidinone] were 140 nM and 400 nM.

`CC(=O)O[C@H]1CCN(CC#CCN2CCC[C@H]2CO[Si](C)(C)C(C)(C)C)C1=O` [[S-(R*,R*)]-3-(Acetyloxy)-1-[4-[2-[[[(1,1-dimethylethyl)-dimethylsilyl]oxy]methyl]-1-pyrrolidinyl]-2-butynyl]-2-pyrrolidinone]: the inhibitory constant (Ki) in data set [2] was found to be 79 nM; in data set [3] (setting [4]), 2600 nM.

Regarding `O=C1[C@@H](O)CCN1CC#CCN1CCC[C@H]1CO` [[S-(R*,R*)]-3-Hydroxy-1-[4-[2-(hydroxymethyl)-1-pyrrolidinyl]-2-butynyl]-2-pyrrolidinone], the Ki was 34300 nM in data set [2] and more than 100000 nM in data set [3] (setting [4]).

On to `CC(C)(C)[Si](C)(C)OC[C@H]1CCCN1CC#CCN1CC[C@H](O)C1=O` [[S-(R*,S*)]-1-[4-[2-[[[(1,1-Dimethylethyl)dimethylsilyl]-oxy]methyl]-1-pyrrolidinyl]-2-butynyl]-3-hydroxy-2-pyrrolidinone], for which the Ki is 1700 nM in data set [2] and 198000 nM in data set [3] (setting [4]).

`CC(=O)O[C@H]1CCN(CC#CCN2CCC[C@@H]2CO[Si](C)(C)C(C)(C)C)C1=O` [[S-(R*,S*)]-3-(Acetyloxy)-1-[4-(2-[[[(1,1-dimethylethyl)dimethylsilyl]oxy]methyl]-1-pyrrolidinyl]-2-butynyl]-2-pyrrolidinone]: the values for the Ki in data set [2] and in data set [3] (setting [4]) were 4200 nM and more than 100000 nM, respectively. For the molecule `O=C1[C@@H](O)CCN1CC#CCN1CCC[C@@H]1CO` [[S-(R*,S*)]-3-Hydroxy-1-[4-[2-(hydroxymethyl)-1-pyrrolidinyl]-2-butynyl]-2-pyrrolidinone], the Ki is 2600 nM in data set [2] and more than 100000 nM in data set [3] (setting [4]).
